Data as given in the supplement of paper PMC10307832.

Tests used:
Assay in all cases: relative viability (nuclei count vs DMSO), 5 days (fraction); higher = more cells survive
IPA-3 = compound: C1=CC=C2C(=C1)C=CC(=C2SSC3=C(C=CC4=CC=CC=C43)O)O [IPA-3]
Outline: (§1)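 Lung cancer cell lines in 1536-well plates were kept overnight at 37 °C, then pinned with five library-drug doses (not always all listed) spaced by √10 on vehicle-anchored plates. After 5 days without medium change, cells were fixed, permeabilised and Hoechst-stained in one step, imaged at 4×, and nuclei were counted with MetaXpress. Viability is treated-well nuclei divided by vehicle-well nuclei, taken as the median over plates. Plates passed only with control CV below 25% and at least one doubling.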

RAF265 = compound: Cn1c(Nc2ccc(C(F)(F)F)cc2)nc2cc(Oc3ccnc(-c4ncc(C(F)(F)F)[nH]4)c3)ccc21 [RAF265]
Outline: as §1

Doramapimod = compound: Cc1ccc(-n2nc(C(C)(C)C)cc2NC(=O)Nc2ccc(OCCN3CCOCC3)c3ccccc23)cc1 [Doramapimod]
Outline: as §1

IPA-3 + Alpelisib = compound: C1=CC=C2C(=C1)C=CC(=C2SSC3=C(C=CC4=CC=CC=C43)O)O [IPA-3] + Cc1nc(NC(=O)N2CCC[C@H]2C(N)=O)sc1-c1ccnc(C(C)(C)C(F)(F)F)c1 [Alpelisib] (partner 2 µM)
Outline: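 Medians of duplicate plates are given as relative viability. That measure is the nuclei count in treated wells divided by the count in vehicle wells. Counts were taken on 4× images of lung cancer cell lines in 1536-well plates, 5 days after pin-tool dosing the day after seeding with one drug alone or a fixed anchor-drug dose plus five library-drug doses (not always all listed) in √10 steps.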

| Cell Line | relative viability (IPA-3; 0.2 µM) | relative viability (IPA-3; 0.6325 µM) | relative viability (IPA-3; 2 µM) | relative viability (IPA-3; 6.325 µM) | relative viability (IPA-3; 20 µM) | relative viability (RAF265; 0.01 µM) | relative viability (RAF265; 0.03162 µM) | relative viability (RAF265; 0.1 µM) | relative viability (RAF265; 1 µM) | relative viability (Doramapimod; 0.02 µM) | relative viability (Doramapimod; 0.06325 µM) | relative viability (Doramapimod; 0.2 µM) | relative viability (Doramapimod; 0.6325 µM) | relative viability (Doramapimod; 2 µM) | relative viability (IPA-3 + Alpelisib; first compound 0.2 µM) | relative viability (IPA-3 + Alpelisib; first compound 0.6325 µM) | relative viability (IPA-3 + Alpelisib; first compound 2 µM) | relative viability (IPA-3 + Alpelisib; first compound 6.325 µM) | relative viability (IPA-3 + Alpelisib; first compound 20 µM) | relative viability (RAF265; 0.3162 µM) |
| --- | --- | --- | --- | --- | --- | --- | --- | --- | --- | --- | --- | --- | --- | --- | --- | --- | --- | --- | --- | --- |
| H3255 | 1 | 0.973 | 0.895 | 0.986 | 1.22 | 1 | 1.05 | 1.03 | 0.67 | 1.05 | 0.981 | 0.96 | 0.968 | 0.933 | 0.798 | 0.774 | 0.48 | 0.657 | 0.863 | – |
| NCI-H2228 | 1.44 | 0.864 | 1.04 | 1.05 | 1.02 | 0.967 | 0.89 | 0.926 | 0.309 | 1.13 | 0.988 | 1.02 | 1.07 | 0.795 | 0.948 | 0.785 | 0.884 | 0.68 | 0.51 | 0.498 |
| CAL-12T | 1.15 | 0.846 | 0.967 | 0.93 | 1.03 | 1.08 | 0.955 | 0.936 | 0.603 | 0.995 | 0.976 | 1.03 | 1.01 | 0.931 | 1.38 | 1.14 | 1.18 | 0.999 | 1.27 | 0.723 |
| A-427 | 1.14 | 0.965 | 0.976 | 0.962 | 1.11 | 1.03 | 0.862 | 1.01 | 0.356 | 0.962 | 1.03 | 1.1 | – | 0.985 | 1.11 | 0.993 | 1.11 | 1.08 | 1.14 | 0.575 |
| HARA | 1.28 | 0.977 | 1.04 | 1.05 | 1.21 | 1.07 | 0.982 | 0.949 | 0.584 | 1.02 | 0.948 | 0.811 | 1.19 | 0.754 | 0.897 | 0.784 | 0.919 | 0.804 | 1.05 | 0.693 |
| NCI-H1793 | 1.14 | 0.768 | 0.884 | 1.09 | 1.04 | 1.1 | 0.856 | 0.731 | 0.48 | 0.894 | 0.843 | 0.896 | 0.94 | 0.884 | 0.786 | 0.677 | 0.757 | 0.739 | 0.785 | 0.321 |
| NCI-H2009 | 1.17 | 0.969 | 1.01 | 0.984 | 0.874 | 0.997 | 0.922 | 0.907 | 0.649 | 1.03 | 1.14 | 1.11 | 1.17 | 1.02 | 1.22 | 1.18 | 1.24 | 1.16 | 1.14 | 0.866 |
| ABC-1 | 1.08 | 0.972 | 0.805 | 1.04 | 1.02 | 1.22 | 0.881 | 0.986 | 0.633 | 0.996 | 0.864 | 0.955 | 0.895 | 0.961 | 1.23 | 1.11 | – | 0.881 | 1.07 | 0.803 |
| IA-LM | 1.15 | 0.758 | 1.03 | 0.876 | 0.892 | 0.941 | 0.855 | 0.91 | 0.755 | 0.921 | 0.977 | 0.906 | 0.982 | 0.913 | 0.884 | 0.735 | 0.731 | 0.703 | 0.738 | 0.801 |
| NCI-H322M | 1.01 | 0.902 | 1.02 | 1.03 | 1 | 1.04 | 1 | 0.597 | 0.282 | 1.05 | 0.993 | 0.998 | 1.3 | 0.937 | 0.867 | 0.823 | 0.759 | 0.0386 | 0.901 | 0.38 |
| NCI-H1792 | 1.32 | 0.794 | 0.952 | 0.809 | 1.08 | 0.893 | 0.73 | 0.648 | 0.249 | 0.954 | 0.869 | 0.971 | 0.913 | 0.715 | 0.729 | 0.668 | 0.703 | 0.646 | 0.794 | 0.246 |
| LXF-289 | 1.08 | 0.999 | 1.04 | 1.06 | 1.13 | 1.02 | 1.1 | 0.976 | 0.768 | 0.999 | 0.986 | 1.01 | 0.982 | 0.943 | 1.08 | 0.978 | 1.03 | 1.02 | 1.13 | 0.807 |
| HCC-827 | 1.07 | 1.05 | 1.05 | 0.955 | 0.978 | 1.03 | 0.963 | 1.05 | 0.903 | 1.02 | 1.05 | 1.07 | 0.902 | 0.863 | 0.972 | 0.961 | 0.971 | 0.978 | 1.01 | – |
| EMC-BAC-2 | 1.02 | 1.05 | 1 | 1.02 | 1.09 | 0.94 | 0.885 | 0.639 | 0.236 | 1 | 1.2 | 1.01 | 0.954 | 0.863 | 0.813 | 0.744 | 0.785 | 0.694 | 0.822 | 0.467 |
| NCI-H520 | 1.07 | 0.888 | 0.916 | 1.03 | 0.929 | 1.11 | 0.869 | 1.03 | 0.614 | 0.943 | 0.933 | 0.941 | 0.88 | 0.868 | 1.08 | 0.949 | 0.784 | 0.847 | 0.753 | 1.02 |
| NCI-H1755 | 1.08 | 0.922 | 1.04 | 1.01 | 1.12 | 1.1 | 1.01 | 0.984 | 0.638 | 0.966 | 0.958 | 1.03 | 0.988 | 0.997 | 1.11 | 0.918 | 0.908 | 0.939 | 1.03 | 0.889 |
